How the values were obtained:
MEL-28 = assay: Inhibition of cell growth by counting cells, MEL-28; format: cell-based, human; conditions: Homo sapiens, SK-MEL-28, 72 h; three days of incubation; read-out: IC50 (molar) MEL-28
Description: (§1) 1°.—Inhibition of Cell Growth by Counting Cells.
(§2) This form of the assay employs 24 well multidishes of 16 mm diameter (Bergeron, 1984; Schroeder, 1981). The tumor cell lines employed are: P-388 (ATCC CCL 46), suspension culture of a lymphoid neoplasm from a DBA/2 mouse; A-549 (ATCC CCL 185), monolayer culture of a human lung carcinoma; HT-29 (ATCC HTB-38), monolayer culture of a human colon carcinoma; MEL-28 (ATCC HTB-72), monolayer culture of a human melanoma and DU-145 (ATCC HTB-81), monolayer culture of a human prostate carcinoma.
(§3) Cells were maintained, in logarithmic phase of growth in Eagle's Minimum Essential Medium, with Earle's Balanced Salts, with non-essential amino acids, with 2.0 mM L-Glutamine, without sodium bicarbonate (EMEM/neaa), supplemented with 10% Fetal Calf Serum (FCS), 10^−2 M. sodium bicarbonate and 0.1 U/l penicillin G+0.1 g/l streptomycin sulfate. For the experiments, cells are harvested from subconfluent cultures using trypsin and resuspended in fresh medium before plating.
A-549, HT-29, MEL-28 and DU-145 cells were seeded into 16 mm diameter wells at 1×10^4 cells per well in 1 ml aliquots of EMEM 5% FCS containing different concentrations of the sample to be tested. A separate set of cultures without drug was seeded as control of growth, to ensure that cells remained in exponential phase of growth. All determinations are carrying out in duplicate. After three days of incubation at 37° C., 5% CO2 in a 98% humid atmosphere cells were stained with 0.1% crystal violet. An approximately IC50 was determined by comparing the growth in wells with drug to the growth in wells control.
(§4) For quantifying the activity, after the incubation time, cells are trypsinized and counted in a Coulter Counter ZM. All counts (net cells per well), represent the average of duplicate wells. % G, percent of growth relative to cultures without drug. The results of these assays are used to generate dose-response curves from which more precise IC50 values are determined (sample concentration which produces 50% cell growth inhibition).
(§5) Obtained results may predict the usefulness of a certain drug as a potential cancer treatment. For this technique, compounds which show IC50 values smaller than 1 μg/ml are selected to continue with further studies. IC50's data allow to predict that not only could a drug be cystostatic, but also it could have a potential in terms of tumor reduction.

HT-29 [1] = assay: Inhibition of cell growth by counting cells, HT-29; format: cell-based, human; conditions: Homo sapiens, HT-29, 72 h; three days of incubation; read-out: IC50 (molar) HT-29
In short: (§6)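 Monolayer lines were plated at 1×10^4 cells per well with compound in medium containing 5% FCS. After a 3-day incubation at 37° C, crystal violet staining gave an approximate IC50, and cell counting of duplicate wells gave the dose-response IC50.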

A-549 [2] = assay: Inhibition of cell growth by counting cells, A-549; format: cell-based, human; conditions: Homo sapiens, A549, 72 h; three days of incubation; read-out: IC50 (molar) A-549
In short: as §6

P-388 = assay: Inhibition of cell growth by counting cells, P-388; format: cell-based, mouse; conditions: Mus musculus, P388, 72 h; three days of incubation; read-out: IC50 (molar) P-388
Description: as §1, §2, §3
P-388 cells were seeded into 16 mm diameter wells at 1×10^4 cells per well in 1 ml aliquots of EMEM 5% FCS containing different concentrations of the sample to be tested. A separate set of cultures without drug was seeded as control of growth, to ensure that cells remained in exponential phase of growth. All determinations are carrying out in duplicate.
as §4, §5

HT-29 [3] = assay: Inhibition of cells growth by colorimetric assay (SRB), HT-29; format: cell-based
Description: (§7) 2°.—Inhibition of Cells Growth by Colorimetric Assay.
(§8) A colorimetric type of assay, using sulforhodamine B (SRB) reaction has been adapted for a quantitative measurement of cell growth and viability [following the technique described by Philip Skehan, et al. (1990), New colorimetric cytotoxicity assay for anticancer drug screening, J. Natl. Cancer Inst., 82:1107-1112]
(§9) This form of the assay employs 96 well cell culture microplates of 9 mm diameter (Faircloth, 1988; Mosmann, 1983). Most of the cell lines are obtained from American Type Culture Collection (ATCC) derived from different human cancer types.
(§10) Cells are maintained in RPMI 1640 10% FBS, supplemented with 0.1 g/l penicillin and 0.1 g/l streptomycin sulfate and then incubated at 37° C., 5% CO2 and 98% humidity. For the experiments, cells were harvested from subconfluent cultures using trypsin and resuspended in fresh medium before plating.
(§11) Cells are seeded in 96 well microtiter plates, at 5×10^3 cells per well in aliquots of 195 μl medium, and they are allowed to attach to the plate surface by growing in drug free medium for 18 hours. Afterward, samples are added in aliquots of 5 μl in a ranging from 10 to 10^−8 μg/ml, dissolved in DMSO/EtOH/PBS (0.5:0.5:99). After 48 hours exposure, the antitumor effect are measured by the SRB methodology: cells are fixed by adding 50 μl of cold 50% (wt/vol) trichloroacetic acid (TCA) and incubating for 60 minutes at 4° C. Plates are washed with deionized water and dried. One hundred μl of SRB solution (0.4% wt/vol in 1% acetic acid) is added to each microtiter well and incubated for 10 minutes at room temperature. Unbound SRB is removed by washing with 1% acetic acid. Plates are air dried and bound stain is solubilized with Tris buffer. Optical densities are read on a automated spectrophotometric plate reader at a single wavelength of 490 nm.
(§12) The values for mean+/−SD of data from triplicate wells are calculated. Some parameters for cellular responses can be calculated: GI=growth inhibition, TGI=total growth inhibition (cytostatic effect) and LC=cell killing (cytotoxic effect).
as §5, with “GI50” for “IC50”, “10” for “1”, “GI50's” for “IC50's”

SK-MEL-28 = assay: Inhibition of cells growth by colorimetric assay (SRB), SK-MEL-28; format: cell-based; conditions: Homo sapiens, SK-MEL-28, 48 h, SRB assay, 48 hours exposure; read-out: MEL-28 GI50
Description: as §7, §8, §9, §10, §11, §12
as §5, with “GI50” for “IC50”, “10” for “1”, “GI50's” for “IC50's”

A-549 [4] = assay: Inhibition of cells growth by colorimetric assay (SRB), A-549; format: cell-based
Description: as §7, §8, §9, §10, §11, §12
as §5, with “GI50” for “IC50”, “10” for “1”, “GI50's” for “IC50's”

| SMILES | IC50 (MEL-28) [nM] | IC50 (HT-29 [1]) [nM] | IC50 (A-549 [2]) [nM] | IC50 (P-388) [nM] | GI50 (HT-29 [3]; Homo sapiens, HT-29, 48 h, SRB assay, 48 hours exposure, read-out: HT-29 GI50) [nM] | LC50 (concentration for 50% cell killing) (HT-29 [3]; Homo sapiens, HT-29, 48 h, read-out: HT-29 LC50, SRB assay, 48 hours exposure) [nM] | HT-29 TGI (HT-29 [3]; SRB assay, 48 hours exposure) | GI50 (SK-MEL-28) [nM] | GI50 (A-549 [4]; Homo sapiens, A549, 48 h, SRB assay, 48 hours exposure, read-out: A-549 GI50) [nM] | LC50 (concentration for 50% cell killing) (A-549 [4]; Homo sapiens, A549, 48 h, read-out: A-549 LC50, SRB assay, 48 hours exposure) [nM] | A-549 TGI (A-549 [4]; SRB assay, 48 hours exposure) |
| --- | --- | --- | --- | --- | --- | --- | --- | --- | --- | --- | --- |
| COc1cc2c(cc1O)CCN(C)[C@]21CS[C@@H]2c3c(OC(C)=O)c(C)c4c(c3[C@H](COC1=O)N1C[C@@H]3Cc5cc(C)c(OC)c(O)c5[C@H](C21)N3C)OCO4 (some centres unmarked) [Compound 185] | 13.2 | 13.2 | 13.2 | 13.2 |  |  |  |  |  |  |  |
| COc1cc2c(cc1O)CCN[C@]21CS[C@@H]2c3c(OC(C)=O)c(C)c4c(c3[C@H](COC1=O)N1C2[C@@H]2N[C@@H](Cc3cc(C)c(OC)c(O)c32)[C@@H]1C#N)OCO4 (some centres unmarked) [Compound 186] | 0.159 | 0.159 | 0.159 | 0.159 |  |  |  |  |  |  |  |
| C=CCOC(=O)Oc1cc2c(cc1OC)[C@@]1(CS[C@@H]3c4c(OC(C)=O)c(C)c5c(c4[C@H](COC1=O)N1C3[C@H]3c4c(cc(C)c(OC)c4O)C[C@@H]([C@@H]1C#N)N3C(=O)OCC=C)OCO5)NCC2 (some centres unmarked) [Compound 187] | 1.08 | 1.08 | 1.08 | 1.08 |  |  |  |  |  |  |  |
| COc1cc2c(cc1O)CCN[C@]21CS[C@@H]2c3c(OC(C)=O)c(C)c4c(c3[C@H](COC1=O)N1C2[C@H]2c3c(cc(C)c(OC)c3O)C[C@@H]([C@@H]1C#N)N2C(=O)OC(C)(C)C)OCO4 (some centres unmarked) [Compound 188] | 0.583 | 0.583 | 0.583 | 0.583 |  |  |  |  |  |  |  |
| COc1cc2c(cc1OC(=O)OC(C)(C)C)CCN[C@]21CS[C@@H]2c3c(OC(C)=O)c(C)c4c(c3[C@H](COC1=O)N1C2[C@@H]2N[C@@H](Cc3cc(C)c(OC)c(O)c32)[C@@H]1C#N)OCO4 (some centres unmarked) [Compound 189] | 0.583 | 0.583 | 0.583 | 0.583 |  |  |  |  |  |  |  |
| COc1cc2c(cc1OC(=O)OC(C)(C)C)CCN[C@]21CS[C@@H]2c3c(OC(C)=O)c(C)c4c(c3[C@H](COC1=O)N1C2[C@H]2c3c(cc(C)c(OC)c3O)C[C@@H]([C@@H]1C#N)N2C(=O)OC(C)(C)C)OCO4 (some centres unmarked) [Compound 190] | 5.22 | 5.22 | 5.22 | 5.22 |  |  |  |  |  |  |  |
| C=CCOc1c(OC)c(C)cc2c1[C@H]1N[C@@H](C2)[C@H](C#N)N2C1[C@@H]1SC[C@]3(NCCc4cc(O)c(OC)cc43)C(=O)OC[C@H]2c2c3c(c(C)c(OC(C)=O)c21)OCO3 (some centres unmarked) [Compound 201] | 15.7 | 15.7 | 15.7 | 12.6 |  |  |  |  |  |  |  |
| CCCCCCCCCCCCCCCC(=O)Oc1cc2c(cc1OC)[C@@]1(CS[C@@H]3c4c(OC(C)=O)c(C)c5c(c4[C@H](COC1=O)N1C3[C@@H]3N[C@@H](Cc4cc(C)c(OC)c(O)c43)[C@@H]1O)OCO5)NCC2 (some centres unmarked) [Compound 215] |  |  |  |  | 86.8 | 10100 | 1.01E-05 | 19.7 | 92.4 | 10100 | 1.01E-05 |
